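Exposure lasted 48 hours, with cells grown in 96-well plates and compounds tested at five concentrations. GI50: concentration for 50% inhibition of growth.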 Active and inactive are the calls of the source. Rule as the data show it: active = GI50 up to about 1.1 µM and inactive = higher.
Assays:
Assay in all cases: NCI tumour cell line growth inhibition, 48 h
PC-3 = tested on: PC-3
UACC-257 = tested on: UACC-257
RPMI-8226 = tested on: RPMI-8226
SK-MEL-2 = tested on: SK-MEL-2
Malme-3M = tested on: Malme-3M
KM12 = tested on: KM12
HOP-92 = tested on: HOP-92
SF-295 = tested on: SF-295
OVCAR-8 = tested on: OVCAR-8
U-251 = tested on: U-251
A549 = tested on: A549
OVCAR-4 = tested on: OVCAR-4
CAKI-1 = tested on: CAKI-1
HCC 2998 = tested on: HCC 2998
IGROV-1 = tested on: IGROV-1
DU-145 = tested on: DU-145
SNB-19 = tested on: SNB-19
A498 = tested on: A498
T47D = tested on: T47D
TK-10 = tested on: TK-10

Row | Structure (SMILES) | GI50 (PC-3) | GI50 (UACC-257) | GI50 (RPMI-8226) | GI50 (SK-MEL-2) | GI50 (Malme-3M) | GI50 (KM12) | GI50 (HOP-92) | GI50 (SF-295) | GI50 (OVCAR-8) | GI50 (U-251) | GI50 (A549) | GI50 (OVCAR-4) | GI50 (CAKI-1) | GI50 (HCC 2998) | GI50 (IGROV-1) | GI50 (DU-145) | GI50 (SNB-19) | GI50 (A498) | GI50 (T47D) | GI50 (TK-10)
1 | O=c1s[s+]([O-])c2ccccc12 (stereo unspecified) | > 100 µM (inactive) | > 100 µM (inactive) | 62.1 µM (inactive) | > 100 µM (inactive) | > 100 µM (inactive) | > 100 µM (inactive) | > 100 µM (inactive) | > 100 µM (inactive) | > 100 µM (inactive) | > 100 µM (inactive) | > 100 µM (inactive) | > 100 µM (inactive) | > 100 µM (inactive) | > 100 µM (inactive) | > 100 µM (inactive) | > 100 µM (inactive) | > 100 µM (inactive) | > 100 µM (inactive) | – | –
2 | O=[N+]([O-])c1ccc(Cl)cc1N/N=C/c1cccc2cccnc12 | > 100 µM (inactive) | > 100 µM (inactive) | 20.3 µM (inactive) | – | – | > 100 µM (inactive) | – | > 100 µM (inactive) | 48.2 µM (inactive) | 79.1 µM (inactive) | > 100 µM (inactive) | 92.7 µM (inactive) | > 100 µM (inactive) | > 100 µM (inactive) | > 100 µM (inactive) | > 100 µM (inactive) | 31.3 µM (inactive) | – | > 100 µM (inactive) | > 100 µM (inactive)
3 | CCOC(=O)Cc1c(C)c2ccc(OC(C)=O)c(OC(C)=O)c2oc1=O | 23.3 µM (inactive) | 14.8 µM (inactive) | 18.3 µM (inactive) | 49.5 µM (inactive) | 12.3 µM (inactive) | 32.7 µM (inactive) | 17.5 µM (inactive) | 36.7 µM (inactive) | 18.6 µM (inactive) | 23.1 µM (inactive) | 21.9 µM (inactive) | 16.5 µM (inactive) | – | – | 15.3 µM (inactive) | 24.9 µM (inactive) | 13.3 µM (inactive) | 44.1 µM (inactive) | – | 20.9 µM (inactive)
4 | O=[N+]([O-])c1ccc(-n2nnc(C3=NCCN3)c2-c2ccccc2)cc1 | – | > 100 µM (inactive) | > 100 µM (inactive) | > 100 µM (inactive) | > 100 µM (inactive) | > 100 µM (inactive) | > 100 µM (inactive) | > 100 µM (inactive) | > 100 µM (inactive) | > 100 µM (inactive) | > 100 µM (inactive) | > 100 µM (inactive) | > 100 µM (inactive) | > 100 µM (inactive) | > 100 µM (inactive) | – | > 100 µM (inactive) | > 100 µM (inactive) | – | > 100 µM (inactive)
5 | COC(=O)c1c[nH]c2nc(N3CCOCC3)nn2c1=O | – | > 100 µM (inactive) | > 100 µM (inactive) | > 100 µM (inactive) | > 100 µM (inactive) | > 100 µM (inactive) | > 100 µM (inactive) | > 100 µM (inactive) | > 100 µM (inactive) | > 100 µM (inactive) | > 100 µM (inactive) | > 100 µM (inactive) | > 100 µM (inactive) | > 100 µM (inactive) | 1.84 µM (inactive) | – | > 100 µM (inactive) | > 100 µM (inactive) | – | > 100 µM (inactive)
6 | CC1(C)C(=O)C=CC2(C)C1CC(O)C1(C)C2CCC2(C)C(c3ccoc3)OC(=O)C3OC321 (stereo unspecified) | 31.6 µM (inactive) | > 10 µM (inactive) | 18.5 µM (inactive) | 11.8 µM (inactive) | – | 14.9 µM (inactive) | 16.4 µM (inactive) | 20 µM (inactive) | 13.3 µM (inactive) | 17.4 µM (inactive) | 19.2 µM (inactive) | 15 µM (inactive) | 11.7 µM (inactive) | 13.4 µM (inactive) | 14.3 µM (inactive) | 16.4 µM (inactive) | 18.9 µM (inactive) | 15.3 µM (inactive) | – | 16 µM (inactive)
7 | CC1(C)OC[C@@H]([C@H](O)C2C=CC(=O)S2)O1 (stereo partly specified) | 34 µM (inactive) | 26.8 µM (inactive) | 18.4 µM (inactive) | 20.3 µM (inactive) | 18.1 µM (inactive) | 14.6 µM (inactive) | 22.4 µM (inactive) | 27.5 µM (inactive) | 21.2 µM (inactive) | 27.7 µM (inactive) | 29.6 µM (inactive) | 42.1 µM (inactive) | 28.1 µM (inactive) | 16.6 µM (inactive) | – | 21.2 µM (inactive) | 43.6 µM (inactive) | 21.4 µM (inactive) | – | 44.9 µM (inactive)
8 | Cc1ccc(C)n1-c1ccccc1C1C=Cn2c3c1c(=O)c(OC(C)C)c(OC(C)C)c-3n[nH]c2=O (stereo unspecified) | 10.3 µM (inactive) | 32.6 µM (inactive) | 8.3 µM (inactive) | 20 µM (inactive) | 18.7 µM (inactive) | 19.9 µM (inactive) | 84.7 µM (inactive) | 27 µM (inactive) | 33.7 µM (inactive) | 32.7 µM (inactive) | 23.4 µM (inactive) | 38.9 µM (inactive) | 31.8 µM (inactive) | 23.6 µM (inactive) | 30.1 µM (inactive) | 99.3 µM (inactive) | 76.2 µM (inactive) | > 100 µM (inactive) | – | 44 µM (inactive)
9 | CCOc1ccccc1NC(=O)C1=C(C)NC(C)=C(C(=O)Nc2ccccc2OCC)C1c1cccc([N+](=O)[O-])c1 | – | 27.2 µM (inactive) | 8.22 µM (inactive) | 39.3 µM (inactive) | 58.3 µM (inactive) | 49.9 µM (inactive) | 4.29 µM (inactive) | > 100 µM (inactive) | 86.5 µM (inactive) | > 100 µM (inactive) | 31.6 µM (inactive) | 14.2 µM (inactive) | 5.9 µM (inactive) | 36.6 µM (inactive) | > 100 µM (inactive) | – | > 100 µM (inactive) | 51.2 µM (inactive) | – | > 100 µM (inactive)
10 | O=C(c1cccc2ccccc12)C1S(=O)(=O)OCCOS1(=O)=O | > 100 µM (inactive) | – | > 100 µM (inactive) | > 100 µM (inactive) | > 100 µM (inactive) | > 100 µM (inactive) | – | 0.0151 µM (active) | > 100 µM (inactive) | > 100 µM (inactive) | > 100 µM (inactive) | > 100 µM (inactive) | > 100 µM (inactive) | > 100 µM (inactive) | – | > 100 µM (inactive) | > 100 µM (inactive) | – | – | > 100 µM (inactive)
11 | C/C(=C\Cc1ccc(F)cc1)CCCCCC/C(C)=C/Cc1ccc(F)cc1 | 15.8 µM (inactive) | 18.1 µM (inactive) | – | 16.9 µM (inactive) | – | 2.25 µM (inactive) | 10.2 µM (inactive) | 10 µM (inactive) | 14.4 µM (inactive) | 18.1 µM (inactive) | 3.65 µM (inactive) | 16.3 µM (inactive) | 9.89 µM (inactive) | – | 4.63 µM (inactive) | 14.2 µM (inactive) | 32.9 µM (inactive) | – | – | 15.5 µM (inactive)
12 | C=CCN(C(=O)OC(C)(C)C)C1=CC2C(C)=CN(S(=O)(=O)c3ccccc3)C2C(OCc2ccccc2)=C1 (stereo unspecified) | > 100 µM (inactive) | > 100 µM (inactive) | > 100 µM (inactive) | > 100 µM (inactive) | > 100 µM (inactive) | > 100 µM (inactive) | – | > 100 µM (inactive) | > 100 µM (inactive) | > 100 µM (inactive) | > 100 µM (inactive) | > 100 µM (inactive) | > 100 µM (inactive) | > 100 µM (inactive) | > 100 µM (inactive) | > 100 µM (inactive) | – | – | – | > 100 µM (inactive)
13 | CC1(C)CC(=O)C(=CN2C(=O)CNC2=S)C(=O)C1 | > 100 µM (inactive) | > 100 µM (inactive) | – | > 100 µM (inactive) | – | > 100 µM (inactive) | > 100 µM (inactive) | > 100 µM (inactive) | > 100 µM (inactive) | > 100 µM (inactive) | > 100 µM (inactive) | > 100 µM (inactive) | > 100 µM (inactive) | > 100 µM (inactive) | > 100 µM (inactive) | > 100 µM (inactive) | > 100 µM (inactive) | – | – | > 100 µM (inactive)
14 | CCOC(=O)c1[nH]c2ccccc2c1C(=O)C[C@H](NC(=O)C(F)(F)F)C(=O)OC | > 100 µM (inactive) | > 100 µM (inactive) | > 100 µM (inactive) | > 100 µM (inactive) | > 100 µM (inactive) | > 100 µM (inactive) | > 100 µM (inactive) | > 100 µM (inactive) | > 100 µM (inactive) | > 100 µM (inactive) | > 100 µM (inactive) | > 100 µM (inactive) | > 100 µM (inactive) | > 100 µM (inactive) | > 100 µM (inactive) | > 100 µM (inactive) | > 100 µM (inactive) | > 100 µM (inactive) | – | > 100 µM (inactive)
15 | COC(=O)C(=CNC(N)=O)C(=O)OC | > 100 µM (inactive) | > 100 µM (inactive) | > 100 µM (inactive) | > 100 µM (inactive) | – | > 100 µM (inactive) | > 100 µM (inactive) | > 100 µM (inactive) | > 100 µM (inactive) | – | > 100 µM (inactive) | – | > 100 µM (inactive) | – | > 100 µM (inactive) | > 100 µM (inactive) | > 100 µM (inactive) | – | > 100 µM (inactive) | > 100 µM (inactive)
16 | N#C/C(=C\c1cc(Br)c(O)c(Br)c1)c1ccccn1 | 29.1 µM (inactive) | 35.4 µM (inactive) | 73.5 µM (inactive) | 47.9 µM (inactive) | 23.6 µM (inactive) | 39.1 µM (inactive) | 14.5 µM (inactive) | 16 µM (inactive) | 94.8 µM (inactive) | 22.9 µM (inactive) | 59.6 µM (inactive) | 61 µM (inactive) | > 100 µM (inactive) | 42.9 µM (inactive) | > 100 µM (inactive) | > 100 µM (inactive) | 46.1 µM (inactive) | – | – | 80.2 µM (inactive)

From ChEMBL document CHEMBL1201862, “PubChem BioAssay data set” (2004)
